Where two headings read alike, the source gives them in different places.
Experiments:
MAT2A homodimer = biological target: T1, MAT2A homodimer (Homo sapiens, UniProt P31153); test: MAT2A biochemical assay (phosphate release, PiColorLock Gold); conditions: recombinant MAT2A homodimer, 60 min pre-incubation, 25° C.; read-out: Enzyme Inhibition
T1 construct: inferred from Ni sepharose purification and imidazole elution; made in house; host or cells: SF9 insect cells, recombinant baculovirus (Bac to Bac, pFASTBAC1)
T1 sequence (P31153 whole entry): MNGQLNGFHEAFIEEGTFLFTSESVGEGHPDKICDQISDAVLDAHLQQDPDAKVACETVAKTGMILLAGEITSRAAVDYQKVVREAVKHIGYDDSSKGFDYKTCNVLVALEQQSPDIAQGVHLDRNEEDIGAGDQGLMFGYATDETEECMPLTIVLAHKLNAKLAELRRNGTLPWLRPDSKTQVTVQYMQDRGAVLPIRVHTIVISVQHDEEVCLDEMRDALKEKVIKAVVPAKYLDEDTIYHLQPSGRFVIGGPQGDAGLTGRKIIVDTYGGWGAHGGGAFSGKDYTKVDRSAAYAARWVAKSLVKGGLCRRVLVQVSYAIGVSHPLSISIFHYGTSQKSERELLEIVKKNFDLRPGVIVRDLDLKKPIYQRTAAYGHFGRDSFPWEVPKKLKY
Method: Mat2A protein was expressed by recombinant baculovirus in SF9 infected cells using the Bac to Bac system cloned into the pFASTBAC1 vector (Invitrogen, Carlsbad, CA). Recombinant MAT2A was isolated from the cell lysate of 150 g of infected cells using HP Ni sepharose column chromatography. Recombinant MAT2A homodimer was eluted with 250 and 500 mM imidazole, and fractions containing MAT2A were identified by sodium dodecyl sulfate polyacrylamide gel electrophoresis and pooled.
For determination of the inhibitory potency of compounds against the MAT2A homodimer, protein was diluted to 4 μg/mL in assay buffer (50 mM Tris, pH 8.0, 50 mM KCl, 15 mM MgCl2, 0.3 mM EDTA, 0.005% [w/v] bovine serum albumin [BSA]). Test compound was prepared in 100% dimethyl sulfoxide (DMSO) at 50× the desired final concentration. A 1 μL volume of compound dilution was added to 40 μL of enzyme dilution and the mixture was allowed to equilibrate for 60 minutes at 25° C. The enzymatic assay was initiated by the addition of 10 μL of substrate mix (500 μM ATP, pH 7.0, 400 μM L-methionine in 1× assay buffer), and the mixture was incubated for a further 60 minutes at 25° C. The reaction was halted and the liberated phosphate released by the enzyme in stoichiometric amounts by the production of S-adenosyl methionine (SAM) was measured using the PiColorLock Gold kit (Innova Biosciences, UK). Absolute product amounts were determined by comparison to a standard curve of potassium phosphate buffer, pH 8.0.

[1] = tested on: MAT2A activity (SAM) in HCT116 cells with deleted MTAP gene; test: Cellular assay of target engagement (SAM) by LC-MS/MS; format: cell-based; conditions: Homo sapiens, read-out: Cell 72 h SAM Inhibition (MTAP −/−)
Method: Measurement of MAT2A activity in cells was made by direct quantitation of the abundance of the product of its enzymatic activity, SAM. Cancer cells were treated with candidate MAT2A inhibitors for a suitable incubation period, and the cells were then lysed using a reagent which quenched any further enzyme activity. Soluble metabolites including SAM were collected and SAM itself was directly measured from the lysate using quantitative LC-MS/MS.
A typical assay was performed using an HCT116 human colon carcinoma cell line which was genetically engineered to delete the MTAP gene (commercially available from Horizon Discovery). This cell line was utilized because it was determined that loss of the MTAP gene predicts sensitivity to MAT2A inhibitors. Cells were plated in 96-well dishes at appropriate cell density. Following 24 hours, cells were then treated with the candidate MAT2A inhibitor. Prior to addition to cells, the compound was first serially diluted in 100% DMSO, typically as a 3-fold serial dilution starting at 500× top dose with 10 dose points including DMSO only control. Compound was then transferred to a working stock plate in cell culture media by adding 5 μL of compound in DMSO to 495 μL of cell culture media. This working stock was then added to cells via a further 5-fold dilution, by adding 25 μL of working stock to 100 μL of cells in culture media. Following compound addition, cells were incubated at 37° C./5% CO2 for 72 hrs.
To quantitate SAM levels following compound treatment, cells were gently washed once in ammonium carbonate buffer (75 mM at pH 7.4), placed on dry ice, and lysed with metabolite extraction buffer (80% cold methanol and 20% water (v/v) with acetic acid at 1M final concentration with 200 ng/mL deuterated d3-SAM as internal control). Following centrifugation at 4° C. at 3,200 rpm for 30 minutes, the supernatant was collected and stored at −80° C. until analysis by Liquid Chromatography with tandem Mass Spectrometry (LC-MS/MS). LC-MS/MS analysis was performed using an API6500 Mass Spectrometer (Sciex, Framingham, MA, USA) operating in positive ion spray mode and equipped with a Waters UPLC Acquity (Waters, Milford, MA, USA) BEH Amide column. Multiple Reaction Monitoring data was acquired for SAM and the d3-SAM standard, using a mass transition pair at m/z 399.2→250.1 and 402.2→250.1, respectively. In a typical LC-MS/MS analysis, the initial flow rate was 0.5 ml/min of 25% mobile phase A (acetonitrile and water at 5:95 (v/v) with 1% formic acid and 10 mM ammonium acetate) and 75% mobile phase B (acetonitrile and water at 95:5 (v/v) with 1% formic acid and 10 mM ammonium acetate), 0.2-0.5 minutes with 75%-35% mobile phase B, 25%-65% mobile phase A, at 0.5 min 65% mobile phase A and 35% mobile phase B, 1.0-1.1 minutes with 35%-75% mobile phase B, 65%-25% mobile phase A, at 1.1 min 25% mobile phase A and 75% mobile phase B with a total run time of 1.5 minutes.

HCT116 MTAP−/− = test: Inhibition of cellular proliferation (Cell Titer Glo), HCT116 MTAP-/-; format: cell-based; conditions: Homo sapiens, HCT-116, 96 h, 4 days, read-out: 4 Day Relative Growth Inhibition (MTAP −/−)
Method: (§1) Test compound impact on cancer cell growth was assessed by treating cancer cells with compound for 4 days and then measuring proliferation using an ATP-based cell proliferation readout (Cell Titer Glo, Promega Corporation).
(§2) In a typical assay an isogenic pair of HCT116 human colon carcinoma cell lines which vary only in MTAP deletion status (HCT116 MTAP+/+ and HCT116 MTAP−/−) were plated in 96-well dishes at appropriate cell density. Following 24 hours, cells were then treated with the candidate MAT2A inhibitor. Prior to addition to cells, the compound was first serially diluted in 100% DMSO, typically as a 3-fold serial dilution starting at 500× top dose with 10 dose points including DMSO only control. Compound was then transferred to a working stock plate in cell culture media by adding 5 μL of compound in DMSO to 495 μL of cell culture media. This working stock was then added to cells via a further 5-fold dilution, by adding 25 μL of working stock to 100 μL of cells in culture media. Following compound addition, cells were incubated at 37° C./5% CO2 for 4 days.
(§3) To measure inhibition of cellular proliferation, cells were allowed to equilibrate to room temperature for 30 minutes, and were then treated with 125 μL of Cell Titer Glo reagent. The plate was then covered with aluminum foil and shaken for 15 minutes to ensure complete mixing and full cell lysis. Luminescent signal was then measured using a plate-based luminometer Veritas version 1.9.2 using ATP standard curve to confirm assay reproducibility from run to run. This luminescence measure was converted to a proliferation index by subtracting from each data point the ATP luminescence signal measured from a bank (no cells) well and dividing by the ATP luminescence signal measured in 0.2% DMSO control well adjusted for signal in blank well. Compound activity was then represented as a percentage change in proliferation relative to a within-plate DMSO control against log 10 of compound concentration in molar (M) units.

HCT116 MTAP+/+ = test: Inhibition of cellular proliferation (Cell Titer Glo), HCT116 MTAP+/+; format: cell-based; conditions: Homo sapiens, HCT-116, 96 h, 4 days, read-out: 4 Day Relative Growth Inhibition (MTAP +/+)
Method: as §1, §2, §3

[2] = HCT-116, HCT116 MTAP −/−, 72 hrs

SMILES	IC50 (MAT2A homodimer)	IC50 [1, 2]	IC50 (HCT116 MTAP−/−)	IC50 (HCT116 MTAP+/+)	IC50 ([1]; HCT-116, 72 h)
Cn1cc2cc(-n3nc4ccc(OCC(F)F)nc4c(-c4ccccc4)c3=O)ccc2n1 [Example 133]	< 100 nM	< 100 nM	100 to 1000 nM	≥ 1000 nM	–
Cn1cc2cc(-n3nc4ccc(OCC(F)F)nc4c(-c4ccncc4)c3=O)ccc2n1 [Example 134]	< 100 nM	100 to 1000 nM	≥ 1000 nM	≥ 1000 nM	–
CCOc1ccc2nn(-c3ccc(OC)cc3)c(=O)c(-c3ccc(OC(F)F)cc3)c2n1 [Example 135]	< 100 nM	< 100 nM	100 to 1000 nM	≥ 1000 nM	–
CCOc1ccc2nn(-c3ccc(OC)cc3)c(=O)c(-c3ccc(OC(F)(F)F)nc3)c2n1 [Example 136]	< 100 nM	100 to 1000 nM	100 to 1000 nM	≥ 1000 nM	–
Cn1cc2cc(-n3nc4ccc(OCC5CC5)nc4c(-c4ccc(OC(F)F)cc4)c3=O)ccc2n1 [Example 137]	< 100 nM	< 100 nM	< 100 nM	≥ 1000 nM	–
CC(C)Oc1ccc2nn(-c3ccc4nn(C)cc4c3)c(=O)c(-c3ccc(OC(F)F)cc3)c2n1 [Example 138]	< 100 nM	< 100 nM	< 100 nM	≥ 1000 nM	–
[2H]C([2H])([2H])Oc1ccc(-c2c(=O)n(-c3ccc4nn(C)cc4c3)nc3ccc(OCC(F)F)nc23)cn1 [Example 139]	< 100 nM	< 100 nM	< 100 nM	100 to 1000 nM	–
Cn1cc2cc(-n3nc4ccc(OCC(F)F)nc4c(-c4cccc(Cl)c4)c3=O)ccc2n1 [Example 140]	< 100 nM	100 to 1000 nM	< 100 nM	≥ 1000 nM	–
CC(C)COc1ccc2nn(-c3ccc4nn(C)cc4c3)c(=O)c(-c3ccc(OC(F)F)cc3)c2n1 [Example 141]	< 100 nM	< 100 nM	100 to 1000 nM	≥ 1000 nM	–
Cn1cc2cc(-n3nc4c(COC5CCCCO5)cc(OCC(F)F)nc4c(-c4ccc(OC(F)F)cc4)c3=O)ccc2n1 (stereo not drawn) [Example 142, 6-(2,2-difluoroethoxy)-4-(4-(difluoromethoxy)phenyl)-2-(2-methyl-2H-indazol-5-yl)-8-(((tetrahydro-2H-pyran-2-yl)oxy)methyl)pyrido[3,2-c]pyridazin-3(2H)-one]	< 100 nM	–	100 to 1000 nM	≥ 1000 nM	100 to 1000 nM
O=c1c(-c2ccc(Cl)cc2)c2nc(OCC(F)F)ccc2nn1-c1ccc2ncsc2c1 [Example 143]	< 100 nM	< 100 nM	< 100 nM	≥ 1000 nM	–
COc1ccc(-c2c(=O)n(-c3ccc4ncsc4c3)nc3ccc(OCC(F)F)nc23)cc1 [Example 144]	< 100 nM	< 100 nM	< 100 nM	≥ 1000 nM	–

From patent publication US12077534B2, “Aza-heterobicyclic inhibitors of MAT2A and methods of use for treating cancer” (Les Laboratoires Servier SAS, priority 2018, dated 2024)
